What was measured:
Y652A-hERG = Y652A-hERG (Homo sapiens, UniProt Q12809, Y652A); conditions: pH 7.4
Source text: (§1) For hERG measurements, the oocytes were clamped at a holding potential of −100 mV and depolarized to +20 mV allowing activation and inactivation. […] Channel block was estimated from tail current inhibition.

[1] = target: wild type hERG (WT) channels (Homo sapiens, UniProt Q12809); conditions: pH 7.4
Source text: as §1

**Q.** Which results are given for `O=C(CCCN1CCC(O)(c2ccc(Cl)cc2)CC1)c1ccc(F)cc1` [Haloperidol, haloperidol]?
**A.** Y652A-hERG nH (hill coefficient) (Y652A-hERG): 1 ± 0.04; Y652A-hERG ∆IC50 (Y652A-hERG): 31.4; WT nH (hill coefficient) [1]: 1.3 ± 0.1

From PMC4828713, “New potential binding determinant for hERG channel inhibitors” (Scientific Reports, 2016)
